Columns and labels:
Assay type in all cases: functional
SK-MEL-5 = assay: Growth inhibition of human SK-MEL-5 cells at 10^-5 M incubated for 48 hrs by sulforhodamine B assay; conditions: SK-MEL-5, 48 h, read-out: GI
SW-620 = assay: Growth inhibition of human SW620 cells at 10^-5 M incubated for 48 hrs by sulforhodamine B assay; conditions: SW-620, 48 h, read-out: GI
NCI-H226 = assay: Growth inhibition of human NCI-H226 cells at 10^-5 M incubated for 48 hrs by sulforhodamine B assay; conditions: NCI-H226, 48 h, read-out: GI
RXF 393 = assay: Growth inhibition of human RXF393 cells at 10^-5 M incubated for 48 hrs by sulforhodamine B assay; conditions: RXF 393, 48 h, read-out: GI
MDA-MB-468 = assay: Growth inhibition of human MDA-MB-468 cells at 10^-5 M incubated for 48 hrs by sulforhodamine B assay; conditions: MDA-MB-468, 48 h, read-out: GI
NCI/ADR-RES = assay: Growth inhibition of human NCI/ADR-RES cells at 10^-5 M incubated for 48 hrs by sulforhodamine B assay; conditions: read-out: GI
HCT-15 = assay: Growth inhibition of human HCT15 cells at 10^-5 M incubated for 48 hrs by sulforhodamine B assay; conditions: HCT-15, 48 h, read-out: GI
HCC 2998 = assay: Growth inhibition of human HCC2998 cells at 10^-5 M incubated for 48 hrs by sulforhodamine B assay; conditions: HCC 2998, 48 h, read-out: GI
U-251 = assay: Growth inhibition of human U251 cells at 10^-5 M incubated for 48 hrs by sulforhodamine B assay; conditions: U-251, 48 h, read-out: GI
MDA-MB-231 = assay: Growth inhibition of human MDA-MB-231 cells at 10^-5 M incubated for 48 hrs by sulforhodamine B assay; conditions: MDA-MB-231, 48 h, read-out: GI
BT-549 = assay: Growth inhibition of human BT549 cells at 10^-5 M incubated for 48 hrs by sulforhodamine B assay; conditions: BT-549, 48 h, read-out: GI
CAKI-1 = assay: Growth inhibition of human Caki1 cells at 10^-5 M incubated for 48 hrs by sulforhodamine B assay; conditions: CAKI-1, 48 h, read-out: GI
NCI-H322M = assay: Growth inhibition of human NCI-H322M cells at 10^-5 M incubated for 48 hrs by sulforhodamine B assay; conditions: read-out: GI
SNB-75 = assay: Growth inhibition of human SNB75 cells at 10^-5 M incubated for 48 hrs by sulforhodamine B assay; conditions: SNB-75, 48 h, read-out: GI
SR = assay: Growth inhibition of human SR cells at 10^-5 M incubated for 48 hrs by sulforhodamine B assay; conditions: read-out: GI
MOLT-4 = assay: Growth inhibition of human MOLT4 cells at 10^-5 M incubated for 48 hrs by sulforhodamine B assay; conditions: MOLT-4, 48 h, read-out: GI
A549 = assay: Growth inhibition of human A549/ATCC cells at 10^-5 M incubated for 48 hrs by sulforhodamine B assay; conditions: A549, 48 h, read-out: GI
OVCAR-3 = assay: Growth inhibition of human OVCAR3 cells at 10^-5 M incubated for 48 hrs by sulforhodamine B assay; conditions: OVCAR-3, 48 h, read-out: GI
T47D = assay: Growth inhibition of human T47D cells at 10^-5 M incubated for 48 hrs by sulforhodamine B assay; conditions: read-out: GI
COLO 205 = assay: Growth inhibition of human COLO205 cells at 10^-5 M incubated for 48 hrs by sulforhodamine B assay; conditions: COLO 205, 48 h, read-out: GI

Row | Structure (SMILES) | inhibition of growth at 10 µM (SK-MEL-5) | inhibition of growth at 10 µM (SW-620) | inhibition of growth at 10 µM (NCI-H226) | inhibition of growth at 10 µM (RXF 393) | inhibition of growth at 10 µM (MDA-MB-468) | inhibition of growth at 10 µM (NCI/ADR-RES) | inhibition of growth at 10 µM (HCT-15) | inhibition of growth at 10 µM (HCC 2998) | inhibition of growth at 10 µM (U-251) | inhibition of growth at 10 µM (MDA-MB-231) | inhibition of growth at 10 µM (BT-549) | inhibition of growth at 10 µM (CAKI-1) | inhibition of growth at 10 µM (NCI-H322M) | inhibition of growth at 10 µM (SNB-75) | inhibition of growth at 10 µM (SR) | inhibition of growth at 10 µM (MOLT-4) | inhibition of growth at 10 µM (A549) | inhibition of growth at 10 µM (OVCAR-3) | inhibition of growth at 10 µM (T47D) | inhibition of growth at 10 µM (COLO 205)
1 | N=C1Nc2c(sc3ccc(Cl)cc23)C(c2ccc3ccccc3c2)N1 (stereo not given) | -0.53% | 0.99% | 6.58% | 0.36% | -6.39% | 1.25% | 3.37% | 10.9% | -0.54% | -0.83% | 5.47% | -12.5% | 6.59% | 0.66% | -0.62% | 10.9% | 7.42% | 8.92% | -15.3% | -6.53%
2 | O=C1CC(=O)N(C2=Nc3c(sc4ccc(Cl)cc34)C(c3cccc([N+](=O)[O-])c3)N2)N1 (stereo not given) | 5.38% | -6.45% | 19.4% | 10.9% | -2.44% | -2.89% | -3.4% | -8.39% | -10.9% | 11.8% | -19.4% | 10.9% | 2.7% | 8.27% | -3.11% | -4.64% | -4.87% | -6.5% | 20.9% | -8.39%
3 | O=C1/C(=C\c2cccc(Br)c2)Sc2ccc(Cl)cc21 | 1.63% | -1.25% | 10.4% | -5.49% | -18.6% | -2.33% | -10.9% | -3.41% | -3.45% | -3.31% | -26.2% | 10.1% | 9.44% | 2.14% | -4.42% | -5.33% | 2.51% | -12.1% | 1.47% | -6.12%
4 | O=C1/C(=C\c2cccc([N+](=O)[O-])c2)Sc2ccc(Cl)cc21 | 8.13% | 2.49% | 5.97% | 15.7% | 13.1% | 7.92% | 6.13% | -36.5% | 13.8% | 9.23% | 20.8% | -4.55% | 4.18% | 12.3% | 54.8% | 2.66% | -6.89% | -2.4% | 13.1% | -6.01%
5 | S=C1Nc2c(sc3ccc(Cl)cc23)C(c2cccc(Br)c2)N1 (stereo not given) | 3.95% | -1.6% | 15.2% | -7.19% | -5.67% | -3.15% | 0.95% | -27.2% | -7.09% | 9.68% | -10.2% | 19.2% | 5.66% | 18.5% | 16.3% | 11.5% | -7.88% | -0.26% | 24.5% | -2.63%
6 | N=C1Nc2c(sc3ccc(Cl)cc23)C(c2cccc(Br)c2)N1 (stereo not given) | 3.53% | -3.61% | 21.6% | -10.1% | 13.6% | 2.51% | -3.08% | -13.8% | -3.32% | 12.6% | -21.8% | 20.5% | 10.3% | 14.4% | 22.4% | 7.81% | 1.98% | 0.84% | 11.3% | -0.42%
7 | O=[N+]([O-])c1cccc(C2NC(=S)Nc3c2sc2ccc(Cl)cc32)c1 (stereo not given) | 4.44% | -0.61% | 20.5% | -9.88% | 5.75% | -1.46% | -0.11% | -13.8% | 4.4% | 23.7% | -0.23% | 22% | 6.48% | 24.4% | 20.3% | 9.49% | 2.45% | 7.97% | 30.9% | -3.44%
8 | N=C1Nc2c(sc3ccc(Cl)cc23)C(c2ccccc2O)N1 (stereo not given) | 2.66% | 1.38% | 12.7% | 3.66% | 2.58% | 7.92% | -5.8% | -22.2% | -7.81% | -5.69% | 17.5% | -15.6% | 4.18% | 22.4% | 10.2% | 0.44% | -4.84% | -1.68% | -13.9% | -6.79%
9 | O=C1Nc2c(sc3ccc(Cl)cc23)C(c2cccc([N+](=O)[O-])c2)N1 (stereo not given) | 2.85% | -3.52% | 17.5% | -8.11% | 8.51% | 6.5% | -4.66% | -3.91% | 6.51% | 12.5% | 7.02% | 20.3% | 10.4% | 22.8% | 20.8% | 11% | 1.5% | -1.08% | 16.3% | -1.33%
10 | O=C1/C(=C\c2ccccc2O)Sc2ccc(Cl)cc21 | 4.61% | -11.4% | 4.98% | -3.05% | -4.1% | 6.5% | -7.07% | -25.6% | -8.52% | 11% | -20.1% | 15.9% | 10.4% | 22.3% | 26.2% | 11.4% | -0.44% | -11.6% | 22.2% | -5.97%

Reference: ChEMBL document CHEMBL4414672, “Synthesis of certain benzothieno[3,2-d]pyrimidine derivatives as a selective SIRT2 inhibitors” (Eur J Med Chem, 2020)
